Data from patent US20240150270A1, “METHOD FOR SELECTIVE RECOVERY OF LIPOPHILIC COMPOUNDS” (priority 2021, published 2024).

What was measured:
[1] = Capture and release of target molecule by cross-linked polymer (HDI-linked cyclodextrin), slurry protocol; type: physicochemical; settings: Example 9; 2 mg/mL in 1:1 ethanol:water, 10:1
Experimental: A mass of CBD was dissolved in ethanol to form a stock solution. A reference sample of the stock solution was diluted with ethanol to obtain a target CBD or other target molecule concentration for a reference measurement. A reaction sample was taken from the remaining stock solution. A cross-linked polysaccharide was combined with the reaction sample in a ratio relative to the CBD or other target molecule concentration present in the reaction sample (by mass) as specified in Examples. The cross-linked polymer is HDI-linked cyclodextrin prepared with a ratio of 8:1 HDI to cyclodextrin.
Water is combined with the reaction sample until the reaction sample reaches a target CBD or other target molecule concentration, and a target ethanol to water ratio. The reaction mixture including the water is filtered at a cutoff size of between 75 μm to 4,000 μm aperture size, or exposed to a magnetic field with a neodymium magnet through the wall of a flask, to retrieve the cross-linked polymer bound with CBD or other target molecule concentration. Once retrieved, the cross-linked polymer is flushed with a dissociation fluid for dissolving the target molecule.
Ten milligrams of CBD were dissolved in a 10 mL mixture of 1:1 ethanol to water to produce a reaction mixture with a CBD concentration of 1 mg/mL. A 1 mL aliquot was then taken from the reaction mixture as a reference sample (t=0). […]

[2] = Dissolution of CBD in ethanol:water mixtures; type: physicochemical
Experimental: The protocol of Example 9 was followed with the 60 mg initially dissolved in ethanol only. […] The remaining five portions were diluted to an ethanol to water ratio of 7:3, 6:4, 5:5, 4:6 or 3:7. The portions were then filtered to retrieve the cross-linked polymer.
At 50:50 EtOH:H2O, CBD dissolves provided that EtOH is added first then H2O. At 45:56 EtOH:H2O, the 2 mg/mL CBD solution is cloudy. […] Slowly adding H2O to the CBD, EtOH, polymer mixture results in very high capture of 98% at a 3:7 EtOH:H2O.
The portions were filtered by pipette filtration to retrieve the cross-linked polymer. The cross-linked polymer was then flushed with DMSO. […] Ten percent of the CBD is not in solution when CBD in 3:7 EtOH:H2O is used. The calculated cyclodextrin capacity within the polymer is 8:1 polymer:CBD.

Q: Which “time to capture plateau” value [1] does the source give for `C=C(C)[C@@H]1CCC(C)=C[C@H]1c1c(O)cc(CCCCC)cc1O` [CBD, cannabidiol] here?
A: about 5 minutes

Q: What about the “dissolution of CBD” value ([2]; 6 mg/mL in 1:1 EtOH:H2O, sonication and heating) of the same compound?
A: did not dissolve

Q: What about the “dissolution of CBD” value ([2]; 40:60 EtOH:H2O, 2 mg/mL) of the same compound?
A: not fully dissolved

Q: And the “dissolution of CBD” value ([2]; 45:56 EtOH:H2O, 2 mg/mL)?
A: cloudy

Q: What about the “dissolution of CBD” value ([2]; 50:50 EtOH:H2O, 2 mg/mL, EtOH added first then H2O) of the same compound?
A: dissolves

Q: And the “CBD not in solution” value ([2]; CBD in 3:7 EtOH:H2O, Example 17)?
A: Ten
